Source: paper PMC8129133, “Polymer-free corticosteroid dimer implants for controlled and sustained drug delivery” (Nature Communications, 2021)
Where “and” joins values, the source holds several entries; their conditions need not be identical. Identical values can stand only once. Like-named read-outs stand apart in the source and are kept apart here. One block for each compound: values may come before it.

Tests used:
[1] = rabbit, in vivo
Experimental: Analysis of samples was conducted using a SCIEX API 5000 mass spectrometer (Applied Biosystems/MDS Sciex), Shimadzu LC-20ADXR HPLC pumps, Shimadzu SCL-10A controller, and HTS-PAL autoinjector (CTC Analytics). Chromatography was performed using a Waters X-Bridge C-18 (3.5 µm; 100 × 2.1 mm) column equipped with a Phenomenex KrudKatcher ULTRA HPLC In-Line Filter (Part AF0-8497). The column was held at a temperature of 40 °C, while the autosampler compartment was maintained at 4 °C. Mobile phases consisted of: (A) 95:5 H2O:MeOH with 2 mM Ammonium Acetate (NH4OAc) and (B) 85:10:5 MeOH:H2O:MeCN with 2 mM NH4OAc. A gradient elution profile was employed, following the trend of: (0 min 30% B), (0.50 min 30% B), (2.50 min 65% B), (2.51 min 100% B), (4.50 min 100% B), (4.51 min 30% B), (6.50 min 30% B). Flow was constant at 0.6 mL min^-1 with an injection volume of 10 µL. For MS parameters, the system was operated in positive ion mode with a TurboIonSpray probe monitoring transitions (±0.2 AMU) of m/z 393.2 → 373.2 for Dex and 397.3 → 377.2 for the Dex-d4 deuterated internal standard. Analyst Version 1.4.2 (Applied Biosystems-MDS Sciex) was used for instrument control, data acquisition, and peak integrations, while calculations including peak area ratios, standard curve regressions, sample concentration values, and descriptive statistics were performed with the assistance of the ALIS2004 validated LIMS.
Dex and internal standard (Dex-d4) were extracted from vitreous humor on ice using protein precipitation. Samples were initially centrifuged at approximately 1500 rcf for 5 min to remove any interfering particulates. Stepwise, the protocol for extraction from vitreous humor was to (1) pipette 50 µL of vitreous humor into an extraction tube; (2) add 13 µL H2O and vortex to mix; (3) add 25 µL internal standard spiking solution (100 ng/mL Dex-d4 in a 1:1 solvent of MeOH:H2O); (4) add 25 µL of make-up reagent (1:1 mixture of MeOH:H2O); (5) vortex mix for 5-10 s at a speed setting of 4 or 5; (6) centrifuge at ~60 rcf for 2 min; (7) add 300 µL of 9:1 MeOH:5 mM NH4OAc at pH 7 to precipitate proteins; (8) cap and vortex mix at full speed for 2 min; (9) Centrifuge at approximately 2700 rcf for 5 min; (10) transfer 300 µL of supernatant to a separate tube; (11) vortex the collected supernatant for 30 s at a low to moderate speed; (12) centrifuge at ~1500 rcf for 5 min; (13) store prepared extract at 4 °C until analysis by LC-MS/MS.
Pharmacokinetics. […] Animals were anesthetized with ketamine (up to ~50 mg/kg) and xylazine (up to ~10 mg/kg). Eyes were surgically prepared before intravitreal procedures with 5% betadine and topical anesthetic eye drops (proparacaine hydrochloride, 0.5%). Prior to test article administration, pupils were dilated with topical application of one drop each of 10% phenylephrine and 1% tropicamide on each cornea.
Implants (30 G × 6 mm Dex-TEG-Dex extruded rods, Ozurdex®) were injected (30 G needle for Dex-TEG-Dex, 22 G needle for Ozurdex®) intravitreally into the eyes of New Zealand White rabbits (female, 1.5–2.5 kg) with terminal timepoints of 1 and 2 weeks and 1, 2, 3, 6, 9, 12, and 14 months. Ocular tissues and plasma were collected at each timepoint and analyzed for Dex by LC/MS/MS. Whole globe eyes were collected into centrifuge tubes and remained frozen for a minimum of 24 h before dissection and tissue collection. During dissection, vitreous humor containing any remaining test article was collected frozen into pre-weighed centrifuge tubes and stored at −80 °C until further processing.

[2] = tested on: LPS-induced stimulation of PGE2 production by primary human monocytes; assay: LPS induced monocyte activation (PGE2 ELISA); assay type: cell-based; details: for % Activity: Fig 4h, PGE2 production, one line per donor; for IC50: primary human monocytes, N=3, read-out: IC50, inhibition of LPS-induced PGE2 production
Source text: Monocytes were isolated from whole peripheral blood donated by healthy volunteers. Protocols were approved by Health Sciences Research Ethics Board (REB) at the University of Toronto (ethics approval #22203). All experiments were repeated with three distinct donors who provided informed consent. Briefly, whole blood was layered on Histopaque-1077 (Sigma) and the mononuclear cell fraction was isolated by density centrifugation. Platelets were removed through a series of washes. Monocytes were seeded at a density of 200,000/well in a 96-well plate (Becton Dickinson). Medium was changed 2 h post-seeding to remove non-adherent cells. […] Dex derived from degraded Dex-TEG-Dex was prepared by dissolving Dex-TEG-Dex in ethanol at 10 mg/ml, adding to culture medium to achieve a concentration of 10 µg/ml, and subsequent incubation of the solution at 37 °C and 5% CO2 until the dimer had fully degraded, as confirmed by HPLC. […] Samples were incubated for 15 min at 37 °C and 5% CO2, followed by addition of a 2 µl lipopolysaccharide stock solution (LPS, Sigma) to obtain a final concentration of 50 µg/ml. Following overnight exposure to LPS, supernatant was collected and analyzed for PGE2 using a PGE2 ELISA kit according to the manufacturer’s instructions (R&D Systems).

[3] = cited from earlier work
[4] = tested on: vascular endothelial growth factor (VEGF) induced blood-retinal barrier breakdown; assay: Rabbit pharmacodynamics, VEGF-induced vascular leakage; assay type: in vivo, Dutch Belted rabbits; set-up: key to FA Scoring: 0: major vessels straight, some tortuosity of smaller vessels, no vessel dilation; 1: increased tortuosity of major vessels and/or some vessel dilation; 2: leakage between major vessels, significant vessel dilation; 3: leakage between major and minor vessels, minor vessels still visible; 4: leakage between major and minor vessels, minor vessels poorly/not visible; details: single eyes, Fig 9b
Experimental: Pharmacodynamics. Rabbit pharmacodynamics studies were performed at Absorption Systems California (San Diego, CA, USA). All studies were conducted in compliance with relevant ethical regulations, including the USDA Animal Welfare Act (i.e., relevant sections of Section 9, Part 1, 2, and 3 of the Code of Federal Regulations) and in compliance with Absorption Systems’ Animal Welfare Assurance filed with the National Institutes of Health. Protocols were reviewed and approved by Absorption Systems’ Institutional Animal Care and Use Committee (IACUC) prior to the initiation of procedures. Treatment of animals was in accordance with conditions specified in the Guide for Care and Use of Laboratory Animals (NRC, 2011, National Academy Press). Animals were anesthetized with intramuscular ketamine hydrochloride (15-20 mg/kg) and xylazine (5 mg/kg) prior to test article injection or vascular leakage induction. The eye area was surgically prepped with 5% betadine and rinsing with balanced salt solution, followed by administration of 1–2 drops of topical proparacaine hydrochloride (0.5%). […] Test articles (27 G × 6 mm, 30 G × 6 mm, and 32 G × 6 mm Dex-TEG-Dex extruded rods, or Ozurdex®) were injected intravitreally in Dutch Belted rabbits (male, 1.84–2.49 kg, 5–6 months) on Day 0 and vascular leakage was induced by an intravitreal injection of VEGF (500 ng/eye) at acute and chronic timepoints (1 week, 2.5, 4.5, 6, 9, 12, and/or 18 months) post-implantation. Post-injection analgesia was provided by 0.02-0.05 mg/kg IM/SC buprenorphine. Negative control rabbits received a sham injection while positive control rabbits received a 2 mg solution dose of triamcinolone acetonide (Kenalog-40). Ophthalmic exams, including fundus microscopy and slit lamp microscopy, were carried out over the 3 days post-VEGF induction and vascular leakage was measured by fluorescein angiography on the third day post-VEGF induction. Eyes were graded based on fundus and fluorescein angiography images using a scoring system as follows[76]: 0 – major vessels straight, some tortuosity of smaller vessels, no vessel dilation; 1 – increased tortuosity of major vessels and/or some vessel dilation; 2 – leakage between major vessels, significant vessel dilation; 3 – leakage between major and minor vessels, minor vessels still visible; and 4 – leakage between major and minor vessels, minor vessels poorly/not visible.

In vitro release = assay type: physicochemical; details: for Cumulative Dex Release (%), avg / Cumulative Dex Release (ng), avg / Cumulative Dex Release / Cumulative SM Release (%), avg / Cumulative SM Release (ng), avg: Fig 6c; for Cumulative Dex Release: single replicates; for Cumulative Pred Release: Fig 5a pellet 1x1 mm, 4 ml PBS, samples and avg; for Cumulative Pred Release (%): Fig 5a pellet, PBS; for Cumulative Dex Release (%), avg / Cumulative Dex Release (ng), avg / Cumulative Pred Release (%) / Cumulative SM Release (%), avg / Cumulative SM Release (ng), avg: avg
Experimental: Pellets for release studies. Crystalline drug dimers were weighed on a stainless steel coupon. In the case of blends with a second drug, the dimer and drug were mixed at the desired mass ratio with mortar and pestle prior to weighing. Samples were transferred to a heat press (Carver Laboratory Press). A PTFE mold containing an array of 1 mm diameter holes of 1 mm depth was placed on top of the melt, and pressure was applied for 2 min. Molded pellets were cooled to room temperature and punched out of the mold, yielding a pellet of 1 mm height × 1 mm diameter.
Release studies were carried out using different media, including PBS (pH 7.4, Gibco), 100% FBS (Sigma, F1051), 1% FBS in PBS pH 7.4, and 3.6% BSA (Sigma, A7906) in PBS (pH 7.4, Gibco). […] Samples were incubated in release medium at 37 °C under constant agitation on an orbital shaker at 115 rpm (VWR). At designated timepoints, sampling was performed by complete removal of medium and replenishment with fresh buffer. Sampling timepoints included 24 h and then every 3–4 days thereafter. For PBS release conditions, samples were analyzed directly. For samples with protein (100% FBS, 1% FBS, 3.6% BSA), protein was precipitated by addition of acetonitrile. Samples were vortexed and centrifuged to separate extracted drug from precipitated protein. The supernatant was then analyzed for drug concentration by HPLC.

Structure (SMILES): OCCOCCOCCO [TEG, triethylene glycol]
toxicity by systemic routes of administration [3]: no significant adverse toxicity

Structure (SMILES): CC1CC2C3CCC4=CC(=O)C=CC4(C)C3(F)C(O)CC2(C)C1(O)C(=O)COC(=O)OCCOCCOCCOC(=O)OCC(=O)C1(O)C(C)CC2C3CCC4=CC(=O)C=CC4(C)C3(F)C(O)CC21C (centres unmarked) [Dex-TEG-Dex (30G x 6 mm implant)]
FA Scoring ([4]; 7 days): 0 | FA Scoring ([4]; 136 days): 0 | FA Scoring ([4]; 360 d): 2 and 3 and 4 and 0 and 1

Structure (SMILES): CC12C=CC(=O)C=C1CCC1C2C(O)CC2(C)C1CCC2(O)C(=O)COC(=O)OCCOCCOCCOC(=O)OCC(=O)C1(O)CCC2C3CCC4=CC(=O)C=CC4(C)C3C(O)CC21C (centres unmarked) [Pred-TEG-Pred]
Cumulative Pred Release (In vitro release; Day 1): 4849.98 ng and 3117.45 ng and 2848.01 ng | Cumulative Pred Release (In vitro release; Day 1, mean): 3605.15 ng | Cumulative Pred Release (In vitro release; Day 3): 9969.33 ng and 8304.40 ng and 8589.91 ng | Cumulative Pred Release (In vitro release; Day 3, mean): 8954.55 ng | Cumulative Pred Release (In vitro release; Day 7): 27879.94 ng and 24662.51 ng and 25461.45 ng | Cumulative Pred Release (In vitro release; Day 7, mean): 26001.30 ng | Cumulative Pred Release (In vitro release; Day 14): 55975.76 ng and 47712.14 ng and 52962.20 ng | Cumulative Pred Release (In vitro release; Day 14, mean): 52216.70 ng | Cumulative Pred Release (%) (In vitro release; Day 1): 0.38% | Cumulative Pred Release (%) (In vitro release; Day 3): 0.94% | Cumulative Pred Release (%) (In vitro release; Day 7): 2.72% | Cumulative Pred Release (%) (In vitro release; Day 14): 5.45%

Structure (SMILES): CCN(CC)CCNC(=O)c1c(C)[nH]c(/C=C2\C(=O)Nc3ccc(F)cc32)c1C [sunitinib malate, reference compound]
Cumulative SM Release (%), avg (In vitro release; Day 1): 3.88% | Cumulative SM Release (ng), avg (In vitro release; Day 1): 5838.79 ng | Cumulative SM Release (%), avg (In vitro release; Day 3): 5.66% | Cumulative SM Release (ng), avg (In vitro release; Day 3): 8518.35 ng | Cumulative SM Release (%), avg (In vitro release; Day 8): 6.76% | Cumulative SM Release (ng), avg (In vitro release; Day 8): 10163.91 ng | Cumulative SM Release (%), avg (In vitro release; Day 10): 7.42% | Cumulative SM Release (%), avg (In vitro release; Day 14): 8.14% | Cumulative SM Release (ng), avg (In vitro release; Day 14): 12242.96 ng

The next lines start with results.

Dex in aqueous humor (ng/ml) [1]: BQL | Dex in retina (ng/g) [1]: BQL | Dex in vitreous humor (ng/ml) [1]: BQL
Structure (SMILES): CC1CC2C3CCC4=CC(=O)C=CC4(C)C3(F)C(O)CC2(C)C1(O)C(=O)COC(=O)OCCOCCOCCOC(=O)OCC(=O)C1(O)C(C)CC2C3CCC4=CC(=O)C=CC4(C)C3(F)C(O)CC21C (centres unmarked) [Dex-TEG-Dex 30G x 6 mm implant]

IC50 ([2]; listed as Dex from Dex-TEG-Dex): 0.93 ± 0.49 nM
Structure (SMILES): C[C@@H]1C[C@H]2[C@@H]3CCC4=CC(=O)C=C[C@]4(C)[C@@]3(F)[C@@H](O)C[C@]2(C)[C@@]1(O)C(=O)CO [Dex from Degraded Dex-TEG-Dex]
% Activity ([2]; 0.05 nM, 50 pM): 133.56% and 95.05% and 109.87% | % Activity ([2]; 0.1 nM, 0.0001 µM): 71.31% and 70.97% and 72.68% | % Activity ([2]; 0.5 nM, 0.0005 µM): 92.91% and 70.93% and 94.26% | % Activity ([2]; 1 nM, 0.001 µM): 74.23% and 63.23% and 72.65% | % Activity ([2]; 5 nM, 0.005 µM): 59.75% and 37.69% and 27.50% | % Activity ([2]; 10 nM, 0.01 µM): 60.49% and 37.84% and 31.81% | % Activity ([2]; 100 nM, 0.1 µM): 63.88% and 16.49% and 17.83%

Cumulative Dex Release (%), avg (In vitro release; Day 1): 0.0437% | Cumulative Dex Release (ng), avg (In vitro release; Day 1): 365.83 ng | Cumulative Dex Release (In vitro release; Day 1): 489.28 ng and 390.83 ng and 217.38 ng | Cumulative Dex Release (%), avg (In vitro release; Day 3): 0.15% | Cumulative Dex Release (ng), avg (In vitro release; Day 3): 1234.13 ng | Cumulative Dex Release (In vitro release; Day 3): 1469.66 ng and 1518.28 ng and 714.45 ng | Cumulative Dex Release (%), avg (In vitro release; Day 8): 0.45% | Cumulative Dex Release (ng), avg (In vitro release; Day 8): 3751.80 ng | Cumulative Dex Release (In vitro release; Day 8): 4281.72 ng and 3939.60 ng and 3034.10 ng | Cumulative Dex Release (%), avg (In vitro release; Day 10): 0.56% | Cumulative Dex Release (ng), avg (In vitro release; Day 10): 4651.15 ng | Cumulative Dex Release (In vitro release; Day 10): 5032.13 ng and 5126.71 ng and 3794.60 ng | Cumulative Dex Release (%), avg (In vitro release; Day 14): 0.78% | Cumulative Dex Release (ng), avg (In vitro release; Day 14): 6525.91 ng | Cumulative Dex Release (In vitro release; Day 14): 7249.57 ng and 6858.64 ng and 5469.52 ng | IC50 ([2]; Monocyte): 1.52 ± 1.24 nM
Structure (SMILES): C[C@@H]1C[C@H]2[C@@H]3CCC4=CC(=O)C=C[C@]4(C)[C@@]3(F)[C@@H](O)C[C@]2(C)[C@@]1(O)C(=O)CO [Dex, dexamethasone, reference compound]
% Activity ([2]; 0.05 nM, 50 pM): 141.66% and 109.12% and 86.18% | % Activity ([2]; 0.1 nM, 0.0001 µM): 118.30% and 90.43% and 82.49% | % Activity ([2]; 0.5 nM, 0.0005 µM): 96.26% and 65.64% and 103.04% | % Activity ([2]; 1 nM, 0.001 µM): 66.03% and 45.78% and 57.92% | % Activity ([2]; 5 nM, 0.005 µM): 74.59% and 37.73% and 56.77% | % Activity ([2]; 10 nM, 0.01 µM): 69.04% and 28.95% and 33.87% | % Activity ([2]; 100 nM, 0.1 µM): 42.88% and 13.38% and 14.89%
